SMILES strings stand for the structures.

Here are results for 21 compounds from US10934296B2, “4-imidazopyridazin-1-yl-benzamides as Btk inhibitors” (Merck Sharp & Dohme B.V., priority 2011, dated 2021).

Btk enzyme (His-Btk), sequence (Q06187 whole entry): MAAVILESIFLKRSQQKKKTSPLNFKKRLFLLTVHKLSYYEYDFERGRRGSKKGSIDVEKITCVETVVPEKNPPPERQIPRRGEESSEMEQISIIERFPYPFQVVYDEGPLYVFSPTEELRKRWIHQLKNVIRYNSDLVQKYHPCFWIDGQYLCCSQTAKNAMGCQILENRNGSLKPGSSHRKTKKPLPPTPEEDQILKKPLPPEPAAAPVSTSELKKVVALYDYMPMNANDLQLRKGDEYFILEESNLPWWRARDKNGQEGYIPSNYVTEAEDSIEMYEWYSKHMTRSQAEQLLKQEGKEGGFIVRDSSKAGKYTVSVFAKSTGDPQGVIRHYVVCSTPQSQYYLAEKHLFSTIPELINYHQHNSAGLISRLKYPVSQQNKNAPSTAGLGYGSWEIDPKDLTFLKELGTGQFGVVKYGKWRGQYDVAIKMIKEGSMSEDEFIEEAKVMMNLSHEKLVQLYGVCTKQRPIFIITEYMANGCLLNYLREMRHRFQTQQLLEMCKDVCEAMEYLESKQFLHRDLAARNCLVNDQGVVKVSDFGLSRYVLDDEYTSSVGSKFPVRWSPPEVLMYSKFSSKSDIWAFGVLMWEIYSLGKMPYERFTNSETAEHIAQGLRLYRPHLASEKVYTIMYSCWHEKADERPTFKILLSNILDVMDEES

One test addresses Btk enzyme (His-Btk) (Homo sapiens (Human), UniProt Q06187). Nature of the test: Btk enzyme activity, IMAP fluorescence polarization assay. The settings on record: 60 min pre-incubation, 5 μM ATP, bin bounds in nM.
With `Nc1nccn2c([C@@H]3CCCN3C(=O)/C=C/CN3CCCC3)nc(-c3ccc(C(=O)Nc4ccccn4)cc3)c12` [Example 2, (S,E)-4-(8-amino-3-(1-(4-(pyrrolidin-1-yl)but-2-enoyl)pyrrolidin-2-yl)imidazo[1,5-a]pyrazin-1-yl)-N-(pyridin-2-yl)benzamide], the “EC50 Btk activity values” is below 100 nM. As to `COC/C=C/C(=O)N1CCC[C@H]1c1nc(-c2ccc(C(=O)Nc3ccccn3)cc2)c2c(N)nccn12` [Example 4, (S,E)-4-(8-amino-3-(1-(4-methoxybut-2-enoyl)pyrrolidin-2-yl)imidazo[1,5-a]pyrazin-1-yl)-N-(pyridin-2-yl)benzamide], the “EC50 Btk activity values” is on record as below 100 nM. Take `Nc1nccn2c([C@@H]3CCCN3C(=O)c3ccnc(Cl)n3)nc(-c3ccc(C(=O)Nc4ccccn4)cc3)c12` [Example 5, (S)-4-(8-amino-3-(1-(2-chloropyrimidine-4-carbonyl)pyrrolidin-2-yl)imidazo[1,5-a]pyrazin-1-yl)-N-(pyridin-2-yl)benzamide]: the “EC50 Btk activity values” is below 100 nM. On to `CN(C)C/C=C/C(=O)N1CCC[C@H]1c1nc(-c2ccc(C(=O)Nc3cc(F)ccn3)cc2)c2c(N)nccn12` [Example 7, (S,E)-4-(8-Amino-3-(1-(4-(dimethylamino)but-2-enoyl)pyrrolidin-2-yl)imidazo[1,5-a]pyrazin-1-yl)-N-(4-fluoropyridin-2-yl)benzamide], for which the “EC50 Btk activity values” is below 100 nM. Consider `CCc1ccnc(NC(=O)c2ccc(-c3nc([C@@H]4CCCN4C(=O)/C=C/COC)n4ccnc(N)c34)cc2)c1` [Example 11, (S,E)-4-(8-Amino-3-(1-(4-methoxybut-2-enoyl)pyrrolidin-2-yl)-imidazo[1,5-a]pyrazin-1-yl)-N-(4-ethylpyridin-2-yl)benzamide], for which the “EC50 Btk activity values” is reported as below 100 nM.

For `CC#CC(=O)N1CCCC[C@H]1c1nc(-c2ccc(C(=O)Nc3ccon3)cc2)c2c(N)nccn12` [Example 24, (S)-4-(8-Amino-3-(1-but-2-ynoylpiperidin-2-yl)imidazo[1,5-a]pyrazin-1-yl)-N-(isoxazol-3-yl)benzamide], the “EC50 Btk activity values” is reported as below 100 nM. On to `CN(C)CC#CC(=O)N1CCC[C@H]1c1nc(-c2ccc(C(=O)Nc3ccccn3)cc2)c2c(N)nccn12` [Example 40, (S)-4-(8-Amino-3-(1-(4-(dimethylamino)but-2-ynoyl)pyrrolidin-2-yl)imidazo[1,5-a]pyrazin-1-yl)-N-(pyridin-2-yl)benzamide], for which the “EC50 Btk activity values” was below 100 nM. Still for that read-out and setting: the figure for `COCC#CC(=O)N1CCC[C@H]1c1nc(-c2ccc(C(=O)Nc3ccccn3)cc2)c2c(N)nccn12` [Example 41, (S)-4-(8-Amino-3-(1-(4-methoxybut-2-ynoyl)pyrrolidin-2-yl)imidazo[1,5-a]pyrazin-1-yl)-N-(pyridin-2-yl)benzamide] is below 100 nM; for `CC#CC(=O)N1CCC[C@H]1c1nc(-c2ccc(C(=O)Nc3ccccn3)c(F)c2)c2c(N)nccn12` [Example 50, (S)-4-(8-amino-3-(1-but-2-ynoylpyrrolidin-2-yl)imidazo[1,5-a]pyrazin-1-yl)-2-fluoro-N-(pyridin-2-yl)benzamide] it is below 100 nM; for `COC/C=C/C(=O)N1CCC[C@H]1c1nc(-c2ccc(C(=O)Nc3cc(OC)ccn3)cc2)c2c(N)nccn12` [Example 51, (S,E)-4-(8-amino-3-(1-(4-methoxybut-2-enoyl)pyrrolidin-2-yl)imidazo[1,5-a]pyrazin-1-yl)-N-(4-methoxypyridin-2-yl)benzamide] it is below 100 nM. Same read-out and setting: the figure for `Cc1cc(C(=O)Nc2ccccn2)ccc1-c1nc([C@@H]2CCCCN2C(=O)c2ccnc(Cl)n2)n2ccnc(N)c12` [Example 56, 4-(8-amino-3-((S)-1-(2-chloropyrimidine-4-carbonyl)piperidin-2-yl)imidazo[1,5-a]pyrazin-1-yl)-3-methyl-N-(pyridin-2-yl)benzamide] is below 100 nM; for `COC/C=C/C(=O)N1CCC[C@H]1c1nc(-c2ccc(C(=O)Nc3cc(C)ccn3)cc2)c2c(N)nccn12` [Example 57, (S,E)-4-(8-amino-3-(1-(4-methoxybut-2-enoyl)pyrrolidin-2-yl)imidazo[1,5-a]pyrazin-1-yl)-N-(4-methylpyridin-2-yl)benzamide] it is below 100 nM. For `COC/C=C/C(=O)N1CCC[C@H]1c1nc(-c2ccc(C(=O)Nc3cc(C(C)C)ccn3)cc2)c2c(N)nccn12` [Example 58, (S,E)-4-(8-amino-3-(1-(4-methoxybut-2-enoyl)pyrrolidin-2-yl)imidazo[1,5-a]pyrazin-1-yl)-N-(4-isopropylpyridin-2-yl)benzamide], the “EC50 Btk activity values” is listed as below 100 nM. For the compound `Cc1ccnc(NC(=O)c2ccc(-c3nc([C@@H]4CCCN4C(=O)/C=C/CN(C)C)n4ccnc(N)c34)cc2)c1` [Example 59, (S,E)-4-(8-amino-3-(1-(4-(dimethylamino)but-2-enoyl)pyrrolidin-2-yl)imidazo[1,5-a]pyrazin-1-yl)-N-(4-methylpyridin-2-yl)benzamide], the “EC50 Btk activity values” is below 100 nM. As for `CN(C)C/C=C/C(=O)NCc1nc(-c2ccc(C(=O)Nc3ccccn3)cc2)c2c(N)nccn12` [Example 69, (E)-4-(8-amino-3-((4-(dimethylamino)but-2-enamido)methyl)imidazo[1,5-a]pyrazin-1-yl)-N-(pyridin-2-yl)benzamide], the “EC50 Btk activity values” is listed as below 100 nM. On the same count and under the same terms, the figure for `CC(C)c1ccnc(NC(=O)c2ccc(-c3nc([C@@H]4CCCN4C(=O)c4ccnc(Cl)n4)n4ccnc(N)c34)cc2)c1` [Example 70, (S)-4-(8-amino-3-(1-(2-chloropyrimidine-4-carbonyl)pyrrolidin-2-yl)imidazo[1,5-a]pyrazin-1-yl)-N-(4-isopropylpyridin-2-yl)benzamide] is below 100 nM.

The same test, now with this note: 60 min pre-incubation, 5 μM ATP, bin bounds in μM.
As for `COC/C=C/C(=O)N1CCC[C@H]1c1nc(-c2ccc(C(=O)Nc3ccccn3)c(F)c2)c2c(N)nccn12` [Example 52], the “EC50 Btk activity values” was below 1000 nM. As for `COC/C=C/C(=O)N1CCC[C@H]1c1nc(-c2ccc(C(=O)Nc3cc(F)ccn3)cc2)c2c(N)nccn12` [Example 53, (S,E)-4-(8-amino-3-(1-(4-methoxybut-2-enoyl)pyrrolidin-2-yl)imidazo[1,5-a]pyrazin-1-yl)-N-(4-fluoropyridin-2-yl)benzamide], the “EC50 Btk activity values” was below 1000 nM.

Turning to `COC/C=C/C(=O)N1CCCC[C@H]1c1nc(-c2ccc(C(=O)Nc3ccon3)cc2)c2c(N)nccn12` [Example 54, (S,E)-4-(8-amino-3-(1-(4-methoxybut-2-enoyl)piperidin-2-yl)imidazo[1,5-a]pyrazin-1-yl)-N-(isoxazol-3-yl)benzamide], the “EC50 Btk activity values” was below 1000 nM. On the same count and under the same terms, under `COC/C=C/C(=O)N1CCCC[C@H]1c1nc(-c2ccc(C(=O)Nc3ncccn3)cc2)c2c(N)nccn12` [Example 55, (S,E)-4-(8-amino-3-(1-(4-methoxybut-2-enoyl)piperidin-2-yl)imidazo[1,5-a]pyrazin-1-yl)-N-(pyrimidin-2-yl)benzamide] stands below 1000 nM. The same measure, in the same setting: the figure for `C=CC(=O)N1CCCC[C@H]1c1nc(-c2ccc(C(=O)Nc3ccccn3)cc2C)c2c(N)nccn12` [Example 68, 4-(3-((S)-1-acryloylpiperidin-2-yl)-8-aminoimidazo[1,5-a]pyrazin-1-yl)-3-methyl-N-(pyridin-2-yl)benzamide] is below 1000 nM.
